In US7087385B2, “Promoter sequences for urocortin II and the use thereof” (Wisconsin Alumni Research Foundation, priority 2002, dated 2006):
Where no end group is shown, it is not given here.

What was measured:
human UCN II promoter [1] = experiment: Dexamethasone induced expression from UCN II promoter fragments in CHO-K1 cultures; format: cell-based, hamster; conditions: 20 μM dexamethasone, 22 h
Text: (§1) The above constructs containing the human UCN II promoter fragments placed upstream of the firefly luciferase gene can be used to transfect immortalized cell lines. The constructs can be transfected into CHO-K1 cell lines using Lipofectamine 2000 (Invitrogen Life Technologies). Primary cultures of the central nervous system, as well as additional immortalized cell lines, are also appropriate for these transfections. To control for transfection efficiency, the cells can also be co-transfected with the pRL-TK vector (Promega). The pRL-TK vector contains the Renilla luciferase gene downstream of the herpes simplex virus thymidine kinase promoter, a promoter which provides low to moderate levels of expression. Cell lysates can be assayed for total protein using the BCA assay (Pierce, Rockford, Ill.) to standardize for the protein extraction. The level of reporter gene expression from a standardized amount of cell extract can be quantified by measuring luciferase activity using a luminometer (EG&G Wallac, Gaithersburg, Md.) and the dual-luciferase reporter assay system (Promega). Firefly luciferase activity reflects UCN II promoter activity and Renilla luciferase activity can be used to normalize data between experiments.
Using the methods described previously, CHO-K1 cultures were transiently transfected with the UCN II promoter constructs. […]

human UCN II promoter [2] = experiment: Dexamethasone induced expression from UCN II promoter fragments in CATH.a cultures; format: cell-based, mouse; conditions: 20 μM dexamethasone, 22 h
Text: as §1
In the following experiments, we confirmed the dexamethasone treatment results in the CATH.a cell line. Using the methods described previously, CATH.a cultures were transiently transfected with the UCN II promoter constructs. Immediately following transfection equal numbers of cultures (N=12 per group) were treated with either 20 μM dexamethasone or were given vehicle. Twenty-two hours following treatment, the cultures were harvested and assayed for luciferase activity (see FIG. 7).

human UCN II promoter [3] = experiment: CRF induced expression from UCN II promoter fragments in CATH.a cultures; format: cell-based; conditions: 1 μM CRF, 22 h
Text: as §1
Using the methods described previously, CATH.a cultures were transiently transfected with the UCN II promoter constructs. Immediately following transfection equal numbers of cultures (N=4 per group) were treated with either 1 μM CRF or with vehicle. Twenty-two hours following treatment, the cultures were harvested and assayed for luciferase activity (see FIG. 8). CATH.a cultures are known to express CRF receptors and both CRF and UCN II are known ligands for the receptors. […] The goal of the present experiment was to determine if CRF receptor-dependent second messenger system activation affected UCN II gene expression.

Compound | decrease in expression compared to vehicle, −1426 construct (human UCN II promoter [1]) [%] | expression within the remaining constructs vs vehicle (human UCN II promoter [1]) | decrease in expression compared to vehicle, −1426 construct (human UCN II promoter [2]) [%] | decrease in expression compared to vehicle, −1987 construct (human UCN II promoter [2]) [%] | expression within the remaining constructs vs vehicle (human UCN II promoter [2]) | expression within the remaining constructs vs vehicle (human UCN II promoter [3]) | increase in expression over vehicle, −1426 construct (human UCN II promoter [3]) [%] | increase in expression over vehicle, −1987 construct (human UCN II promoter [3]) [%] | expression within the −1987 and −1426 constructs vs vehicle (human UCN II promoter [3]; P<0.05 for −1987, P<0.001 for −1426, preliminary data)
C[C@@H]1C[C@H]2[C@@H]3CCC4=CC(=O)C=C[C@]4(C)[C@@]3(F)[C@@H](O)C[C@]2(C)[C@@]1(O)C(=O)CO [dexamethasone] | 15 | no significant effect | 39 | 29 | no effect | – | – | – | –
corticotropin-releasing factor (SEEPPISLDLTFHLLREVLEMARAEQLAQQAHSNRKLMEII; ends and bridges not checked; UniProt P06850 154-194, looked up) [CRF, neurotransmitter peptide, ligand of CRF receptors] | – | – | – | – | – | no significant effect | 52 | 29 | significantly increased expression
